{"source": "patent US20210386783A1", "about": "“USE OF GLUCOSYLCERAMIDE SYNTHASE GENE-DEFICIENT T CELL AND THERAPEUTIC UTILIZATION THEREOF” (SCHOOL CORPORATION, AZABU VETERINARY MEDICINE EDUCATIONAL …, priority 2018, published 2021)", "key": {"[1]": {"test_system": "acute leukemia-derived cell line ALL", "conditions": "combination with fenretinide; cited from earlier work"}, "T cells": {"test_system": "T cells", "test": "Proliferation rate / toxicity of PPMP treatment on T cells (cell proliferation/cytotoxicity assay kit CK-1, Dojindo)", "format": "cell-based, mouse", "conditions": "isolated T cells", "description": "(§1) The isolated T cells were treated with PPMP in concentrations of 0, 1, 5 and 10 μM for 24 hours, and then measuring the expression level of GM3 (left view) and the proliferation rate of the cells (right view).\n(§2) Using Dynabeads Untouched Mouse T Cells kit (Thermo fisher Scientific), T cells were isolated from the excised spleen, and the T cells were then activated by IL-2 (30 U/mL) and Dynabeads Mouse T-Cell activator CD3-CD28 (Thermo fisher Scientific). Thereafter, the T cells were recovered over time, and the expression of a PD-1 gene was then analyzed by qPCR. With regard to the proliferation rate of the T cells after the activation, the proliferation rate was increased in the cells derived from the T cell-specific UGCG gene-deficient mice (FIG. 7A).\n(§3) The T cells were isolated in the same manner as that of the above 3, and the isolated T cells were then treated with PPMP used as a UGCG inhibitor in various concentrations for 24 hours. Thereafter, the expression level of ganglioside GM3 was analyzed using a flow cytometer. […] Moreover, in order to examine the toxicity of the PPMP treatment on T cells, the proliferation rate of the T cells was measured using a cell proliferation/cytotoxicity assay kit (CK-1, Dojindo)."}, "neuroblastoma cell line": {"test_system": "neuroblastoma cell line", "conditions": "combination with fenretinide; cited from earlier work"}, "UGCG": {"target": "T1, UGCG (Mus musculus, UniProt O88693)", "T1 construct": "endogenous in cells; host or cells: primary T cells isolated from mouse spleen", "T1 sequence (O88693 1-394)": "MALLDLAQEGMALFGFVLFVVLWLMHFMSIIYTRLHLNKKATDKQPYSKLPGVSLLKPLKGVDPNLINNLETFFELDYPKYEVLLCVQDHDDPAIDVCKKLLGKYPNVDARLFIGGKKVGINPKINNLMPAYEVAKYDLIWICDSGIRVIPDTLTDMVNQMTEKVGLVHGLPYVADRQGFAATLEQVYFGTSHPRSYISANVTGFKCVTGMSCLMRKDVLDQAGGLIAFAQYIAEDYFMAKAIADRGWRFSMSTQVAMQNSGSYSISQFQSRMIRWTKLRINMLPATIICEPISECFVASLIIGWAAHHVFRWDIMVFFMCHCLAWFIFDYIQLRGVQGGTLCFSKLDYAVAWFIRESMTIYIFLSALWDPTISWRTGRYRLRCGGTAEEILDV", "test": "Expression level of ganglioside GM3 in isolated T cells after in vitro PPMP treatment (flow cytometer)", "format": "cell-based", "conditions": "isolated mouse spleen T cells, PPMP 0, 1, 5 and 10 μM for 24 hours", "description": "as §1, §2, §3"}}}
{"smiles": "CCCCCCCCCCCCCCCC(=O)NC(CN1CCOCC1)C(O)c1ccccc1", "note": "(centres unmarked) [PPMP, 1-phenyl-2-hexadecanoylamino-3-morpholino-1-propanol]", "values": [{"measurement": "effect on cytotoxicity of fenretinide (4-HPR)", "setting": "[1]", "value": "synergistically enhances the cytotoxicity"}, {"measurement": "proliferation rate of the T cells", "setting": "T cells; PPMP 0, 1, 5 and 10 μM for 24 hours, concentration range of reducing glycolipids", "value": "did not influence on the proliferation rate"}, {"measurement": "toxicity of PPMP on the cells", "setting": "T cells; PPMP treatment for 24 hours", "value": "low"}, {"measurement": "effect on cytotoxicity of fenretinide (4-HPR)", "setting": "neuroblastoma cell line", "value": "synergistically enhances the cytotoxicity"}, {"measurement": "expression level of ganglioside GM3", "setting": "UGCG", "value": "reduced in a PPMP concentration-dependent manner"}]}
